Data published in BindingDB's records for doi:10.7270/Q2QZ28D7 (Burnham Center For Chemical Genomics, 2009).

molecular target: his6-Siah1 (aa 81-282) (Homo sapiens, UniProt Q8IUQ4); assay: blockers of Siah-1 interaction with plectin peptide – biochemical, fluorescence polarization, rhodamine-plectin, uHTS, primary screen (AID 1817); details: not given
Sequence (Q8IUQ4 whole entry, looked up, the tested form may be a part): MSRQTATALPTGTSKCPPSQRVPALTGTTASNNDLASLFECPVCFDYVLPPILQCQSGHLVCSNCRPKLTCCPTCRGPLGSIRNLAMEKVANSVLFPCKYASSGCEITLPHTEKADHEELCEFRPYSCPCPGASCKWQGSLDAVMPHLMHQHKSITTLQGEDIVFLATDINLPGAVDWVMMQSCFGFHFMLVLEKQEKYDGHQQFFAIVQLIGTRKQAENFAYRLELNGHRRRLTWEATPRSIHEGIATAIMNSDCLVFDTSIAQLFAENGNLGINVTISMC

SMILES	IC50 [µM]
CC1(C)Cc2c(sc(N=CN3CCCCCC3)c2C#N)C(C)(C)N1	> 200
CC[n+]1c(/C=C/N(C)c2ccccc2)sc2ccc(Cl)cc21 [N-[(E)-2-(5-chloro-3-ethyl-1,3-benzothiazol-3-ium-2-yl)ethenyl]-N-methylaniline;perchlorate]	> 200
CC(C)(C)c1cc(-c2cs/c(=N\c3ccccc3)n2Cc2ccc(C(=O)O)cc2)cc(C(C)(C)C)c1O [4-[[4-(3,5-ditert-butyl-4-oxidanyl-phenyl)-2-phenylazanyl-1,3-thiazol-3-ium-3-yl]methyl]benzoic acid;bromide]	> 200
Fc1ccc(C=NNC(=S)Nc2cccnc2)cc1F [1-[[3,4-bis(fluoranyl)phenyl]methylideneamino]-3-pyridin-3-yl-thiourea]	> 200
Cc1cc(C)nc(NN=C2C(=O)N(Cc3ccc(Cl)cc3)c3ccccc32)n1 [SMR000248022]	> 200
O=C(O)c1ccc(C=NNC(=O)c2ccc(CN3c4cccc5cccc(c45)S3(=O)=O)cc2)cc1 [MLS001003216]	> 200
C=c1c(C#N)c2[nH]c(N)c(C#N)c(C)c-2c1=Cc1ccc(-c2ccccc2C(=O)O)o1 [SMR000277284]	20.6
CCOC(=O)C1=C(C)N=c2sc(=Cc3ccc(OCC(=O)O)cc3)c(=O)n2C1c1ccc(Cl)cc1 (centres undefined) [2-[4-[[5-(4-chlorophenyl)-6-ethoxycarbonyl-7-methyl-3-oxidanylidene-5H-[1,3]thiazolo[3,2-a]pyrimidin-2-ylidene]methyl]phenoxy]ethanoic acid]	> 200
CN(Cc1c(C(=O)NN=Cc2ccc(F)cc2)nnn1-c1nonc1N)C1CCCCC1 [1-(4-amino-1,2,5-oxadiazol-3-yl)-5-[[cyclohexyl(methyl)amino]methyl]-N-[(4-fluorophenyl)methylideneamino]triazole-4-carboxamide]	> 200
CCN(CC)c1ccc(C=c2sc3nnc(-c4ccccc4Cl)n3c2=O)cc1 [3-(2-chlorophenyl)-6-[4-(diethylamino)benzylidene][1,3]thiazolo[2,3-c][1,2,4]triazol-5(6H)-one]	> 200
Cc1ccc(S(=O)(=O)N[N-][C+]2C3CC4CC(C3)CC2C4)cc1[N+](=O)[O-] [SMR000241699]	> 200
CN1/C(=C\C=C\C2=[N+](C)c3ccc4ccccc4c3C2(C)C)C(C)(C)c2ccccc21 [1,1,3-trimethyl-2-[(E,3Z)-3-(1,3,3-trimethyl-2-indolylidene)prop-1-enyl]benzo[e]indol-3-ium;perchlorate]	> 200
O=C(NN=Cc1cccc(Br)c1)c1ccc(Br)cc1 [4-bromanyl-N-[(3-bromophenyl)methylideneamino]benzamide]	> 200
O=C(Nc1ccc(Br)cc1)c1ccc(-n2c(O)c3c(c2O)CC=CC3)cc1 [4-[1,3-bis(oxidanylidene)-3a,4,7,7a-tetrahydroisoindol-2-yl]-N-(4-bromophenyl)benzamide]	18.6
C[N+]1(CCNC(=O)CN=O)CCCCC1	> 200
COC(=O)c1cc(NC(=O)c2ccccc2)c(=O)oc1CC=Nc1ccc(Oc2ccccc2)cc1 [methyl 5-benzamido-6-oxidanylidene-2-[(E)-2-[(4-phenoxyphenyl)amino]ethenyl]pyran-3-carboxylate]	> 200
COc1cc(NS(=O)(=O)c2ccc(NC(=S)NC(=O)C=Cc3ccc(F)cc3)cc2)ncn1	> 200
CCN(CC)CCOC(=O)c1ccc(N=CC(C#N)c2nc(-c3ccc(OC)c(OC)c3)cs2)cc1 (centres undefined) [SMR000434079]	12.5
CCOC(=O)C(C#N)=c1sc(=C2C=Cc3ccccc3N2CC)c(=O)n1CC [MLS000534135]	> 200
O=C(NN=Cc1ccc(OC(=O)c2cccs2)cc1)c1cccc(F)c1 [MLS000576933]	> 200
CCN(CC)c1ccc(C=NC(C#N)C(=N)C#N)cc1 (centres undefined) [SMR000023871]	> 200
CCN(CC)CCOC(=O)c1ccc(N=CC(C#N)c2nc(-c3cc4ccccc4oc3=O)cs2)cc1 (centres undefined) [2-(diethylamino)ethyl 4-[[(Z)-2-cyano-2-[4-(2-oxochromen-3-yl)-1,3-thiazol-2-yl]ethenyl]amino]benzoate]	11.2
COc1ccc(NC2=NC(=O)SC2=Cc2ccc(N(C)C)cc2)cc1 [(5Z)-5-[[4-(dimethylamino)phenyl]methylidene]-4-(4-methoxyanilino)-1,3-thiazol-2-one]	> 200
CCOC(=O)C1(C)CC(=Nc2ccc(O)cc2)C(=O)N1c1ccc(O)cc1 (centres undefined)	> 200
COC(=O)c1cccc(Cn2c(Cl)c(C=NNC(=O)c3ccccc3Cl)sc2=O)c1 [3-{4-Chloro-5-[(2-chloro-benzoyl)-hydrazonomethyl]-2-oxo-thiazol-3-ylmethyl}-benzoic acid methyl ester]	> 200

same assay, conditions: inactive by the depositor's call

SMILES	IC50 [µM]
CC1(C)OC(C)(C)C(=CNc2ccc(O)cc2)C1=O [4-[(4-hydroxyanilino)methylene]-2,2,5,5-tetramethyldihydro-3(2H)-furanone]	48.2
CCCCNc1c2c3c(cccc3n(C)c1=O)C(=O)c1ccccc1-2 [1-Butylamino-3-methyl-3H-naphtho[1,2,3-de]quinoline-2,7-dione]	23.1

molecular target: not listed separately; assay: PubChem AID 1817; details: not given

SMILES	IC50 [µM]
CCN1C(=O)C(=CNc2ccc(N3CCOCC3)cc2)C(=O)N(CC)C1=S	200
O=C1CCCC(=O)C1=NNc1ccc(C(=O)O)cc1 [SMR000370092]	200
